Source: patent publication US20080234347A1, “METHOD FOR TREATING CB2 RECEPTOR MEDIATED PAIN” (priority 2007, published 2008)

Columns and labels:
CB2 receptor = target: T1, CB2 receptor (Rattus norvegicus, UniProt Q9QZN9); conditions: background literature statement; cited from earlier work
T1 sequence (Q9QZN9 1-360): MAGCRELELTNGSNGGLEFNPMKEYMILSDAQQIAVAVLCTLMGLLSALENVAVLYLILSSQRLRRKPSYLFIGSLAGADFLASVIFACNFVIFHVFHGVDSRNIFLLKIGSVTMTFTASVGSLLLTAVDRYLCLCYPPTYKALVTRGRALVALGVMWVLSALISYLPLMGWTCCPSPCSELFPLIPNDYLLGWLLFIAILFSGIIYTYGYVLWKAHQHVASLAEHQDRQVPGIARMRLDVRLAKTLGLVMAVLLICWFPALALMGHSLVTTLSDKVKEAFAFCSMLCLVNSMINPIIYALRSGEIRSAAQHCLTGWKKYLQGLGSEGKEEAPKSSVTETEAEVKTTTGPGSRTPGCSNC

Male CD-1 mice = test: Hot-plate nociception test; format: in vivo, mouse; conditions: 30 min after dosing, 48° C. hot plate, cut-off 90 sec, ± SEM
Excerpt: The hot-plate test originally described by Eddy and Leimbach (J. Pharmacol. Exp. Ther. 107:385-393, 1953) with minor modifications (e.g., O'Callaghan and Holtzman, J. Pharmacol. Exp. Ther. 192: 497-505, 1975) was used to ascertain the analgesic potential of investigated compounds. The hot plate analgesia meter used for these studies was produced by Columbus Instruments International (Columbus, Ohio).
Male CD-1 mice (30-35 g) were weighed, placed in a plastic box with wood chips and allowed to acclimate before testing. An individual mouse was placed on a 48° C. heated surface and locomotion on the plate was constrained by a glass cylinder. The time interval between placement and a shaking, licking or tucking of either hind-paw (nociceptive response) was recorded as the Baseline measurement. Animals were removed from the heated plate immediately after responding or after a maximum of 40 sec to prevent tissue damage. Each mouse was tested only once.
One treatment group (9 animals each) was then injected i.p. with vehicle (5% DMSO and 5% Tween-80 in sterile saline). The other treatment groups (8 animals each) were injected i.p. with 10 or 30 mg/kg Compound I. Thirty minutes after test compound administration, each animal was assessed for a response with a maximum cut-off of 90 sec. […]

male Sprague-Dawley rats [1] = test: Carrageenan model of inflammatory pain, radiant heat paw withdrawal, compound given before carrageenan (Example 1); format: in vivo, rat; conditions: 1 h before 1% carrageenan, mean ± SEM, cutoff 20 sec
Procedure: Intraplantar injection of carrageenan (Cg) in a rodent produces pronounced hypersensitivity to both thermal and mechanical stimuli. The effects of carrageenan are maximal 2-4 hr after administration.
(§1) To assess the ability of test compounds to reverse thermal hyperalgesia, baseline response latencies on a radiant heat (RH) paw stimulator were obtained before an intraplantar injection of carrageenan-λ (200 μL) in male Sprague-Dawley rats (250-350 g in treatment groups of […] each). Only withdrawal responses that were quick hind paw movements (with or without licking of the hind paw) were recorded. Paw movements associated with locomotion or a shifting of weight were not considered a withdrawal response.
(§2) The weight of each animal was recorded on the day of the experiment. Each animal was placed on a warm (approx. body temperature, 30° C.) glass surface and allowed to acclimate to the test chamber for approximately 10-15 minutes. A radiant thermal stimulus (beam of light) was then focused on the sole of each hind paw in turn, and an initial (baseline) response time to thermal stimuli was recorded for each animal. The stimulus intensity (radiant heat at a setting of 5 Amps) that produced 10-15 sec baseline withdrawal latencies was used and a maximum cutoff of 20 sec was imposed. The light stimulus was automatically shut off by a photoelectric relay when the foot moved or when the cut-off time limit was reached.
One treatment group (8 animals each) was injected i.p. with vehicle (5% DMSO and 5% Tween-80 in sterile saline). The other treatment groups (8 animals each) were injected i.p. with 3, 10 or 30 mg/kg Compound 7.
One hour later, withdrawal latencies for the animals administered vehicle were recorded. After assessment, all animals were administered 1% carrageenan (200 μL in sterile saline) subcutaneously into the sub-plantar tissue of the left hind paw to stimulate an acute inflammatory reaction. Three hours later, the response time of the animals to the thermal stimulus was evaluated.

[2] = system: Rats (male Sprague Dawley); test: Visceral hyperalgesia model, colorectal distension after zymosan colitis; format: in vivo, rat; conditions: ± SEM
Procedure: This protocol uses barostat-controlled, isobaric colorectal distensions (CRD) in rats to evaluate the potency and efficacy of test compounds in treating visceral hyperalgesia.
Rats (male Sprague Dawley (275-350 g; CD(SD); Charles River Labs) are housed 2 to 4 animals per cage in a temperature and humidity controlled room with a 12 hr/12 hr light/dark cycle, with ad libitum access to food and water.
One day after release from quarantine, the animals were acclimated to progressively longer (30 min and 4 hr later, 45 min) periods of simple restraint in plexiglas devices (G-3, rat ECU; Braintree Scientific; Braintree Mass.). The animals were returned to their home cages overnight. The next day they were acclimated in the restraint device for 60 min in the morning. 4 hrs later, the animals were lightly anesthetized with 70% CO2:30% O2. A highly compliant, 4 cm long polyethylene balloon, lubricated with K-Y Jelly was then inserted via the anus into the rectum and distal colon. The balloon was positioned such that the aboral end was 1 cm from the anus and was secured in place by taping the balloon catheter to the base of the tail. The catheter was connected to a computerized barostat that controlled the inflation of the balloon and the resulting colorectal distension. The balloon pressure, representing intracolonic pressure, was continuously recorded.
CRD in conscious animals elicits a reflex visceromotor response consisting of contraction of the anterior abdominal wall muscles (Ness T J and Gebhart G F, Colorectal distension as a noxious visceral stimulus: physiologic and pharmacologic characterization of pseudaffective reflexes in the rat, Brain Res., (1988), 450: 153-169). Contraction of these muscles increases intraabdominal pressure and subsequently increases intracolonic pressure. Changes in intracolonic pressure are transduced through the same balloon used to deliver the CRD. The manometric endpoint has recently been reported to mimic electromyographic responses recorded from anterior abdominal wall muscles in rats (Tammpere A, Brusberg M, Axenborg J, Hirsch I, Larsson H and Lindstrom E, Evaluation of pseudo-affective responses to noxious colorectal distension in rats by manometric recordings, Pain, (2005), 116: 220-226)
Stimulus-response data were obtained by delivering two series of 20 sec ramp (15, 30, 45, 60, 75 mmHg) distensions at four-minute intervals and recording the manometric response as follows: the intracolonic pressure signal is passed through a digital 1 Hz highpass filter, rectified and the integral of the initial 15 seconds of the CRD subjected to baseline subtraction (the 15 sec immediately preceding balloon distension); the responses at each distending pressure are averaged to obtain a control stimulus/response curve for each animal. The colorectal balloons were then removed and the animals were returned to their home cages.
The following morning, one treatment group (4 animals) was injected i.p. with 10 mg/kg Compound 7 (solubilized in 5% DMSO and 5% Tween-80 in sterile saline).
One hour later, an acute colitis was induced in all treatment groups by the intracolonic instillation of a 1.5 mL bolus of 2.5% (w/v) zymosan A (from Saccharomyces cerevisiae; Sigma Chemical Co., St. Louis) in 30% ethanol (under light 70% CO2:30% O2 anesthesia). Four hours later, the animals were lightly anesthetized and the colorectal balloons inserted as on the previous day for controlled distensions. The identical CRD stimuli was applied and manometric responses were recorded and analyzed as described for the control phase of the experiment.
The animals in one treatment group (4 animals) were then subcutaneously (s.c.) dosed with 1 mg/kg morphine. As a comparator for analgesic response, animals in another treatment group (9 animals) were dosed s.c. with 3 mg/kg morphine 4 hrs after colitis initiation and 30 min prior to CRD.

male Sprague-Dawley rats [3] = test: Carrageenan model of inflammatory pain, radiant heat paw withdrawal, compound given after carrageenan (Example 2); format: in vivo, rat; conditions: read thirty minutes after compound, mean ± SEM
Procedure: as §1, §2
The experiment of Example 1 was repeated with the exception that animals were first administered 1% carrageenan (200 μL in sterile saline) subcutaneously into the sub-plantar tissue of the left hind paw to stimulate an acute inflammatory reaction.
Two and a half hours later, withdrawal latencies were assessed (‘post-Cg’). One treatment group (7 animals each) was then injected i.p. with vehicle (5% DMSO and 5% Tween-80 in sterile saline). The other treatment groups (8 animals each) were injected i.p. with 3, 10 or 30 mg/kg Compound 7. Thirty minutes after test compound administration withdrawal latencies were recorded.

In the case of `CN1CCCCC1Cn1cc(C(=O)c2cc([N+](=O)[O-])ccc2I)c2ccccc21` (stereo not shown) [AM1241], the “antinociception to thermal stimuli” value (CB2 receptor) is listed as “produces antinociception to thermal stimuli”.

In the case of `O=C(N[C@H](CO)c1ccccc1)c1n[nH]c2c1CCCCC2Cc1cccc(Cl)c1` (stereo partly drawn) [Compound 1, 8-(3-chloro-benzyl)-1,4,5,6,7,8-hexahydro-cycloheptapyrazole-3-carboxylic acid [(1S)-2-hydroxy-1-phenyl-ethyl]-amide], the “% MPE (percent maximal effect)” value (Male CD-1 mice; 10 mg/kg i.p.) was 20.58 ± 9.27 % MPE and the “% MPE (percent maximal effect)” value (Male CD-1 mice; 30 mg/kg i.p.) was 4.25 ± 10.65 % MPE.

In the case of `C[C@H](NS(=O)(=O)/C=C/c1n[nH]c2c1CCCC/C2=C\c1ccc(Cl)cc1)c1ccccc1` [Compound 7, (2E,8E)-2-[8-(4-chloro-benzylidene)-1,4,5,6,7,8-hexahydro-cycloheptapyrazol-3-yl]-ethenesulfonic acid [(1S)-1-phenyl-ethyl]-amide], the “withdrawal latency to radiant thermal stimulus, 3 hrs post Cg administration” value (male Sprague-Dawley rats [1]; 3 mg/kg i.p.) was 8.44 ± 1.88 s, the “withdrawal latency to radiant thermal stimulus, 3 hrs post Cg administration” value (male Sprague-Dawley rats [1]; 10 mg/kg i.p.) was 7.87 ± 1.01 s and the “withdrawal latency to radiant thermal stimulus, 3 hrs post Cg administration” value (male Sprague-Dawley rats [1]; 30 mg/kg i.p.) was 6.05 ± 0.83 s. For the same molecule, the “manometric response, percent of initial (control) response” value (shortened to “manometric response, percent of initial”) ([2]; 15 mmHg distension, 10 mg/kg i.p. 1 h before zymosan colitis, n = 4) was 245.7 ± 87.76%, the “manometric response, percent of initial” value ([2]; 30 mmHg distension, 10 mg/kg i.p. 1 h before zymosan colitis, n = 4) was 527.2 ± 196.8% and the “manometric response, percent of initial” value ([2]; 45 mmHg distension, 10 mg/kg i.p. 1 h before zymosan colitis, n = 4) was 301.3 ± 104.2%. The “manometric response, percent of initial” value ([2]; 60 mmHg distension, 10 mg/kg i.p. 1 h before zymosan colitis, n = 4) was 243.7 ± 66.53%, the “manometric response, percent of initial” value ([2]; 75 mmHg distension, 10 mg/kg i.p. 1 h before zymosan colitis, n = 4) was 230.9 ± 51.95% and the “withdrawal latency to radiant thermal stimulus, 0.5 hrs post Cg” value (shortened to “withdrawal latency … 0.5 hrs post Cg”) (male Sprague-Dawley rats [3]; 3 mg/kg i.p. given 2.5 h after carrageenan) was 5.30 ± 0.48 s. For the same molecule, the “withdrawal latency … 0.5 hrs post Cg” value (male Sprague-Dawley rats [3]; 10 mg/kg i.p. given 2.5 h after carrageenan) was 5.33 ± 0.48 s and the “withdrawal latency … 0.5 hrs post Cg” value (male Sprague-Dawley rats [3]; 30 mg/kg i.p. given 2.5 h after carrageenan) was 4.53 ± 0.39 s.

With `CN1CC[C@]23c4c5ccc(O)c4O[C@H]2[C@@H](O)C=C[C@H]3[C@H]1C5` [Morphine, morphine, reference compound] the “manometric response, percent of initial” value ([2]; 15 mmHg distension, morphine 3 mg/kg s.c. 4 hrs after colitis initiation, 30 min prior to CRD, n = 9) was 96.34 ± 12.53%, the “manometric response, percent of initial” value ([2]; 30 mmHg distension, morphine 3 mg/kg s.c. 4 hrs after colitis initiation, 30 min prior to CRD, n = 9) was 69.96 ± 11.21% and the “manometric response, percent of initial” value ([2]; 45 mmHg distension, morphine 3 mg/kg s.c. 4 hrs after colitis initiation, 30 min prior to CRD, n = 9) was 61.69 ± 8.72%. For the same molecule, the “manometric response, percent of initial” value ([2]; 60 mmHg distension, morphine 3 mg/kg s.c. 4 hrs after colitis initiation, 30 min prior to CRD, n = 9) was 56.33 ± 8.23% and the “manometric response, percent of initial” value ([2]; 75 mmHg distension, morphine 3 mg/kg s.c. 4 hrs after colitis initiation, 30 min prior to CRD, n = 9) was 63.18 ± 9.19%.
